Data set [1] has as its system HCT-116 cells. The data set can be described thus: Cellular uptake and subcellular localization by fluorescence microscopy. The class given is cell-based, human. Conditions: live HCT-116 cells, 10 μM, time lapse over 24 h. On the procedure:
HCT-116 cells (ATCC CCL-247) were cultured in Dulbecco's modification of Eagle's medium (DMEM) with 4.5 g L^−1 glucose, […], and 5% heat inactivated fetal calf serum (FCS) in glass-bottom dishes. Fluorescent images were collected on a Leica (Wetzlar, Germany) DMI6000 inverted confocal microscope with a Yokogawa (Tokyo, Japan) spinning disk confocal head, Orca ER High Resolution B&W Cooled CCD camera (6.45 μm/pixel at 1×) (Hamamatsu, Sewickley, Pa.), Plan Apochromat 40×/1.25 na and 63×/1.4 na objective, and a Melles Griot (Carlsbad, Calif.) Argon/Krypton 100 mW air-cooled laser for 488, 568, and 647 nm excitations. Confocal z-stacks were acquired in all experiments. […]
Cellular uptake and localization of 1 in HCT-116 tumor cells was then evaluated using fluorescence microscopy. […] HCT-116 cells were treated with 10 μM 1 in DMEM containing 10% FCS, 100 U/mL penicillin-G, and 100 μg/mL streptomycin and analyzed by fluorescence microscopy. […] Within 6-12 h, fluorescence from 1 concentrated within vesicles surrounding the nucleus and remained in these structures (FIG. 4b). […]
The cellular uptake of localization of 1 in HCT-116 tumor cells was then evaluated using fluorescence microscopy. […] HCT-116 cells were treated with 10 μM 1 in DMEM containing 10% FCS, 100 U/mL penicillin-G and 100 μg/mL streptomycin and analyzed by fluorescence microscopy. […]

In data set [2] the target is T1, human migration inhibitory factor (hMIF) (Homo sapiens, UniProt P14174).
T1 construct: confirmed the presence of hMIF in the immunoprecipitated fraction of HCT-116 cell lysate; endogenous in cells; host or cells: HCT-116 cell lysate
T1 sequence (P14174 2-115 limits assumed): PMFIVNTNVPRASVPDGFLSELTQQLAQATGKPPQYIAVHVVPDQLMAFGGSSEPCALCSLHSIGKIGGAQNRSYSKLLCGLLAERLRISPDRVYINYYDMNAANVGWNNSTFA
Nature of the data set: Anti-IAF tag immunoprecipitation, LC-MS/MS identification and Western blot. In kind it is binding. As to conditions: HCT-116 cell lysate, ~12 kDa band. An excerpt: A) Anti-IAF immunoprecipitation studies identify a ˜12 kDa band. Lane L1, L2 and L3 depict HCT116 cell lysate, an IAF dye elution (bands correspond to fragments of the anti-IAF mAb) and glycine wash, respectively. The ˜12 kDa band was identified in the glycine wash. B) Trypsin-digest LC-MS/MS analysis identified three peptides that overlapped with the hMIF protein (shown in red). C) Western blot analysis using a mouse anti-MIF mAb confirmed the presence of hMIF in the immunoprecipitated fraction of HCT-116 cell lysate, as well as in E. coli lysates bearing recombinanthMIF. Arrow denotes the position of hMIF. The upper bands arose from the mouse anti-IAF mAb used in this experiment (background).
Attention was then turned to screening for proteins that bind to the spirohexenolides. Using the affinity properties of the IAF probe 4, we deployed an anti-IAF tag immunoprecipitation protocol to isolate a 12 kDa band (Lane L3 in FIG. 9A). […] Western blot analysis (FIG. 9C) confirmed hMIF the identification of hMIF.

Data set [3] deals with neuroblastoma cells (Neuro2a). The data set can be described thus: Inhibition of mitosis. In kind it is cell-based. As to conditions: by inhibiting the exit from anaphase.
Data set [4] concerns breast cancer cells (HeLa). The data set can be described thus: Inhibition of mitosis. In kind it is cell-based. As to conditions: by inhibiting the exit from anaphase.
Data set [5] has as its system prostate. The data set can be described thus: NCI-60 human tumor cell line screen, single dose. The class given is cell-based. As to conditions: dosed at 10 μM, single dose NCI-60.
Data set [6] deals with melanoma. The data set can be described thus: NCI-60 human tumor cell line screen, single dose. The class given is cell-based. Conditions: dosed at 10 μM, single dose NCI-60.
Data set [7] deals with human colon tumor HCT-116 cell line. As to conditions: for GI50: HCT-116 cells, MTT assay, in house.
Data set [8] concerns NCI-60 human tumor cell line. The data set can be described thus: NCI-60 human tumor cell line screen, multiple dose / dose-response. In kind it is cell-based.
In data set [9] the test system is HCT-116 cells. The data set can be described thus: Cell cycle effects by three-color confocal fluorescence microscopy. The class given is cell-based, human. An excerpt: Images in a) and b) depict live cells. c) A confocal fluorescent image indicating the effects of 1 has on the cell structure. Cells treated as in a) were fixed with 0.1% formalin and stained for their DNA content with SYTO-60 (false colored in blue) (Wlodkowic et al., Cytometry A, 73:496-507 (2008)), actin with FITC-phalloidin (green) (Verderame et al., Proc Natl Acad Sci USA, 77:6624-6628 (1980)), and microtubules with BODIPY FL-paclitaxel (red) (Bicamumpaka et al., Int J Mol Med, 2:161-165 (1998)). For each experiment, HCT-116 cells were cultured to 10^6 cells/cm^2 in a 35 mm poly-D-lysine coated glass-bottom dish and treated with 1 mL of 10 μM 1 in Dulbecco's modified essential medium (DMEM) containing 10% fetal bovine serum (FBS), 100 U/mL penicillin-G and 100 μg/mL streptomycin.
The effects of 1 on the cell cycle were also evaluated. HCT-116 cells cultured in DMEM were treated 1 h before the onset of mitosis with 10 μM 1 in DMEM. After 12 h (several hours after the completion of mitosis), the cells were fixed for 5 min with 0.5% formalin and 0.1% glutaraldehyde in PBS pH 7.2, washed extensively with PBS pH 7.2, treated with a cocktail of fluorescent probes to visualize DNA, actin, and microtubules and examined using three-color confocal fluorescence microscopy. […]

Data set [10] has as its system Bacillus subtilis 6633. Nature of the data set: Minimum inhibitory concentration (MIC) assay. In kind it is cell-based. As to conditions: Bacillus subtilis 6633, 37° C. for 18 h, no visible bacterial growth, duplicates. On the procedure:
Minimum Inhibitory Concentration (MIC) Assay of Spirohexenolide A (1), using Bacillus subtilis 6633.
Spirohexenolide A (1) in dimethyl sulfoxide (DMSO) was diluted to 10, 15, 30, 60, 120, 250, 500, and 1000 μg/mL stocks in tryptic soy broth with a final concentration of 1% DMSO. B. subtilis, cultured for 18 h at 37° C. in tryptic soy broth, was inoculated at 1/10000 to a final volume of 200 μL per well on a 96 well plate and then treated with 2 μL of a stock solution of 1 (10, 15, 30, 60, 120, 250, 500, and 1000 μg/mL in tryptic soy broth containing 1% DMSO). […] The compound was tested in duplicates.

For data set [11] the following is noted: mouse, in vivo.
The subject of data set [12] is renal cancers. Nature of the data set: NCI-60 human tumor cell line screen, single dose. The class given is cell-based. As to conditions: dosed at 10 μM, single dose NCI-60.

For the compound `CC1=C[C@]2(C)/C=C(C)/C=C/C[C@@H](OC(=O)CCCn3cc(CNC(=O)Cc4cc(=O)oc5cc(N(C)C)ccc45)nn3)/C=C3C=C/C(=C4\C(=O)O[C@]2(C[C@@H]1C)C4=O)OC/3` [probe 3], the “cell phenotype after treatment” value in data set [1] is given as “characteristic apoptotic phenotype”.

Consider `CC1=C[C@]2(C)/C=C(C)/C=C/C[C@@H](OC(=O)CCC(=O)NCCCCCCNC(=O)Cc3cc(=O)oc4cc(N(C)C)ccc34)/C=C3C=C/C(=C4\C(=O)O[C@]2(C[C@@H]1C)C4=O)OC/3` [probe 4], for which the “protein isolated by the probe” value in [2] is “human migration inhibitory factor (hMIF)”.

For the compound spirohexenolide A, the inhibition of mitosis entry in data set [3] was “inhibit mitosis”; in [4], “inhibit mitosis”; in [9] (colon cancer cells (HCT111), by inhibiting the exit from anaphase), “inhibit mitosis”. For the same compound, the results for the inhibition in data set [5], in data set [6] and in data set [12] were 85%, 96% and 95%, respectively. This compound showed an IC50 in [7] of 0.5 µM. The compound also registered a GI50 in data set [7] of 36 ± 5.1 µM. For the same compound, the “activity (GI50) by cell line” value in [8] (leukemia (CCRF-CEM, MOLT-4, RPMI-8226), lung cancer (HOP-92), colon cancer (SW-629) cell lines) is listed as “enhanced activity”. Besides, the “sensitivity in dose-response assays” value in data set [8] (leukemia, renal cancer, and melanoma cell lines) is “selective sensitivity”. The “effect on the cell cycle” value in [9] (10 μM, treated 1 h before onset of mitosis, fixed after 12 h) is given as “induced cell cycle arrest during mitosis”. Also, in data set [1], the “cell phenotype after treatment” value is listed as “characteristic apoptotic phenotype”. In data set [10], this compound returned an MIC of 12.25 µM. In addition, in data set [11], the “single dose producing toxicity” value is 6 to 10 mg/kg.

In turn, spirohexenolide B registered a GI50 in data set [7] of 61.2 ± 7.8 µM.

Source of the values: patent US8653283B2, “Anticancer agents” (The Regents of The University of California, priority 2009, dated 2014).
